According to US20180321220A1, “UNIVERSAL BIOELECTROCHEMICAL METABOLIC FLUX MEASUREMENT SYSTEM AND METHODS OF MAKING AND USING THE SAME” (Saint Louis University, priority 2015, published 2018):

Assays:
mouse liver mitochondria [1] = conditions: pyruvate as substrate, in words; Dröse et al. cited; cited from earlier work
whole drosophilae larvae = experiment: Metabolic flux analysis (amperometry) of whole Drosophila larvae; format: in vivo
Description: Materials. Sodium phosphate monobasic (Sigma), sodium phosphate dibasic (Sigma), sodium chloride (Sigma), sodium pyruvate (Sigma), citric acid (Sigma), rotenone (Sigma), adenosine diphosphate (Sigma), sucrose (Sigma), Tris-EDTA (Sigma), Protease inhibitor cocktail (Sigma), deionized water (in house), and dimethylsulfoxide (Sigma) were used as received. All wild-type Drosophila larvae were hatched and grown on standard cornmeal-agar-molasses-yeast food at room temperature. Individual larvae were selected used for metabolic flux analysis. Mitochondria were isolated from normal mice liver. All steps were carried out at 4° C. Tissues were kept on ice. The liver tissue was homogenized in 3 volumes of Buffer A (0.33 M sucrose, 1.33 m M Tris-EDTA, pH 7.4 buffer containing protease inhibitors) using potter Dounce homogenizer. Once homogenized two more volumes of Buffer A were added and mixed before centrifugation at 1000 Xg for 10-15 mins. The supernatant was then recovered and centrifuged 2 times more to remove impurities. Finally, the supernatant was recovered and centrifuged at 15,000 Xg for 20 mins. The mitochondrial pellet recovered from the bottom of the centrifuge tube and suspended at a protein concentration of 35 mg/ml in phosphate buffered saline at pH 7.5. […]
Metabolic flux analysis. […] When the experiment was ready to begin the sample was added to the electrode. […]

mouse liver mitochondria [2] = experiment: Metabolic flux analysis (amperometry) of mouse liver mitochondria suspension; format: biochemical; conditions: for attenuation of electron flux / inhibitory response (electron flux): in words; for Electron flux generated: rotenone present (1 μl of 1 mg/ml in DMSO), 120 seconds of measurement, 600 mV; for inhibitory response (electron flux): substrate not stated
Description: Materials. Sodium phosphate monobasic (Sigma), sodium phosphate dibasic (Sigma), sodium chloride (Sigma), sodium pyruvate (Sigma), citric acid (Sigma), rotenone (Sigma), adenosine diphosphate (Sigma), sucrose (Sigma), Tris-EDTA (Sigma), Protease inhibitor cocktail (Sigma), deionized water (in house), and dimethylsulfoxide (Sigma) were used as received. All wild-type Drosophila larvae were hatched and grown on standard cornmeal-agar-molasses-yeast food at room temperature. Individual larvae were selected used for metabolic flux analysis. Mitochondria were isolated from normal mice liver. All steps were carried out at 4° C. Tissues were kept on ice. The liver tissue was homogenized in 3 volumes of Buffer A (0.33 M sucrose, 1.33 m M Tris-EDTA, pH 7.4 buffer containing protease inhibitors) using potter Dounce homogenizer. Once homogenized two more volumes of Buffer A were added and mixed before centrifugation at 1000 Xg for 10-15 mins. The supernatant was then recovered and centrifuged 2 times more to remove impurities. Finally, the supernatant was recovered and centrifuged at 15,000 Xg for 20 mins. The mitochondrial pellet recovered from the bottom of the centrifuge tube and suspended at a protein concentration of 35 mg/ml in phosphate buffered saline at pH 7.5. Once the extraction was complete the mitochondria was stored at −80° C. in small aliquots for further use.
Metabolic flux analysis. The electrochemical test setup consisted of a USTAT 200 Bipotentiostat coupled to a Dropsens SPE 110 screen printed electrode chip that included a carbon working electrode, a carbon counter electrode, and a silver reference electrode. The working substrate solution consisted of pH 7.40 10 mM phosphate buffer, 137 mM sodium chloride, 10 mM metabolic substrate, and 1 mg/ml adenosine diphosphate. The inhibitor solution consisted of 1 mg/ml rotenone in dimethyl sulfoxide. For uninhibited experiments pure dimethyl sulfoxide was used to maintain consistency. To the electrode 35 μl of substrate solution was dropped on top of the 3 electrode working area of the chip ensuring that all of the electrode surfaces were thoroughly wetted. To this drop, 1 μl of dimethyl sulfoxide was added that may or may not contain inhibitor. When the experiment was ready to begin the sample was added to the electrode. For mitochondrial suspension, 15 μL of the suspension was added to the working area of the chip. For the larvae, one larvae was placed into the drop of solution on to the working electrode. Amperometry was then performed with an applied potential of 600 mV with respect to the reference electrode for 120 seconds.

Molecule	inhibition of electron flux (mouse liver mitochondria [1])	Electron flux generated (whole drosophilae larvae; glucose as substrate, rotenone present (1 μl of 1 mg/ml in DMSO), 120 seconds of measurement, 600 mV)	attenuation of metabolic flux (whole drosophilae larvae; glucose solution, in words)	attenuation of electron flux (mouse liver mitochondria [2]; citrate as metabolic substrate)	Electron flux generated (mouse liver mitochondria [2]; citrate as substrate)	attenuation of electron flux (mouse liver mitochondria [2]; pyruvate as metabolic substrate)	Electron flux generated (mouse liver mitochondria [2]; pyruvate as substrate)	inhibitory response (electron flux) (mouse liver mitochondria [2])
CC1=NS(=O)(=O)c2cc(Cl)ccc2N1 [diazoxide]	partial inhibition	–	–	–	–	–	–	–
C=C(C)[C@H]1Cc2c(ccc3c2O[C@@H]2COc4cc(OC)c(OC)cc4[C@@H]2C3=O)O1 [rotenone]	–	3.302×10^−4 micromoles of electrons	diminished	did not exhibit significant inhibition	1.536×10^−4 micromoles of electrons	diminished	1.435×10^−4 micromoles of electrons	strong inhibitory responses
antimycin	–	–	–	–	–	–	–	strong inhibitory responses
